“And” between values parts separate entries of the source, which are not always exact repeats. Identical values can stand only once. Toxic doses and inconclusive results are not listed. Rule as the data show it: active = T/C of 150% or more; inactive = T/C below 125%.
System: L1210 leukemia ip in BDF1 mice, survival T/C
Assay: NCI In Vivo Anticancer Drug Screen. Data for tumor model L1210 Leukemia (intraperitoneal) in B6D2F1 (BDF1) mice
Conditions: endpoint: mean survival time, higher = longer survival
Procedure, shortened: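 Transplantable tumor model; survival measured in treated vs vehicle control mice. Value = treated/control.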

[1] = dose: 100.0 mg/kg/injection, schedule: Q01DX001 (ip), vehicle: carboxymethylcellulose (CMC)
[2] = dose: 200.0 mg/kg/injection, schedule: Q01DX001 (ip), vehicle: carboxymethylcellulose (CMC)
[3] = dose: 400.0 mg/kg/injection, schedule: Q01DX001 (ip), vehicle: carboxymethylcellulose (CMC)
[4] = dose: 100.0 mg/kg/injection, schedule: Q01DX001 (ip), vehicle: Klucel (hydroxypropylcellulose) (HPC)
[5] = dose: 100.0 mg/kg/injection, schedule: Q01DX009 (ip), vehicle: Klucel (hydroxypropylcellulose) (HPC)
[6] = dose: 100.0 mg/kg/injection, schedule: Q04DX002 (ip), vehicle: Klucel (hydroxypropylcellulose) (HPC)
[7] = dose: 200.0 mg/kg/injection, schedule: Q01DX001 (ip), vehicle: Klucel (hydroxypropylcellulose) (HPC)
[8] = dose: 200.0 mg/kg/injection, schedule: Q01DX009 (ip), vehicle: Klucel (hydroxypropylcellulose) (HPC)
[9] = dose: 200.0 mg/kg/injection, schedule: Q04DX002 (ip), vehicle: Klucel (hydroxypropylcellulose) (HPC)
[10] = dose: 400.0 mg/kg/injection, schedule: Q01DX001 (ip), vehicle: Klucel (hydroxypropylcellulose) (HPC)
[11] = dose: 400.0 mg/kg/injection, schedule: Q01DX009 (ip), vehicle: Klucel (hydroxypropylcellulose) (HPC)
[12] = dose: 400.0 mg/kg/injection, schedule: Q04DX002 (ip), vehicle: Klucel (hydroxypropylcellulose) (HPC)
[13] = dose: 100.0 mg/kg/injection, schedule: Q01DX001 (ip), vehicle: saline
[14] = dose: 100.0 mg/kg/injection, schedule: Q04DX003 (ip), vehicle: saline
[15] = dose: 200.0 mg/kg/injection, schedule: Q04DX003 (ip), vehicle: saline

Measured: T/C

CC(=O)/C(N=Nc1ccccc1)=C(\C)O
inactive: dose: 50.0 mg/kg/injection, schedule: Q01DX001 (ip), vehicle: carboxymethylcellulose (CMC) 90 % of control | dose: 50.0 mg/kg/injection, schedule: Q01DX009 (sc), vehicle: olive oil, sesame oil, peanut oil 113 % of control | [1] 97 % of control | dose: 100.0 mg/kg/injection, schedule: Q01DX009 (sc), vehicle: olive oil, sesame oil, peanut oil 113 % of control | [2] 87 % of control | dose: 200.0 mg/kg/injection, schedule: Q01DX009 (sc), vehicle: olive oil, sesame oil, peanut oil 101 % of control | [3] 95 % of control

CC(=O)OC(C)(C)/C=C/C(=O)[C@](C)(O)[C@H]1[C@H](O)C[C@@]2(C)[C@@H]3CC=C4[C@@H](CC[C@H](O)C4(C)C)[C@]3(CO)C(=O)C[C@]12C
inactive: dose: 0.57 mg/kg/injection, schedule: Q01DX Z (ip), vehicle: saline 106 % of control | dose: 0.86 mg/kg/injection, schedule: Q01DX Z (ip), vehicle: saline 106 % of control | dose: 1.3 mg/kg/injection, schedule: Q01DX Z (ip), vehicle: saline 112 % of control

COC1CCC2CC3(CCC2(C)C1O)OCCO3 (stereo not drawn)
inactive: [1] 100 % of control | [2] 105 % of control | [3] 97 % of control

O=C(Nc1ccccn1)Nc1cc(C(F)(F)F)ccc1Cl
inactive: [4] 98 % of control | [5] 95 % of control and 90 % of control | [6] 95 % of control and 103 % of control | dose: 100.0 mg/kg/injection, schedule: Q04DX003 (ip), vehicle: Klucel (hydroxypropylcellulose) (HPC) 108 % of control | [7] 91 % of control | [8] 92 % of control | [9] 98 % of control and 103 % of control | dose: 200.0 mg/kg/injection, schedule: Q04DX003 (ip), vehicle: Klucel (hydroxypropylcellulose) (HPC) 97 % of control | [10] 98 % of control | [11] 95 % of control | [12] 93 % of control and 97 % of control | dose: 400.0 mg/kg/injection, schedule: Q04DX003 (ip), vehicle: Klucel (hydroxypropylcellulose) (HPC) 96 % of control

COc1ccc2c(ccc3c2ncc2c(=O)[nH]n(C)c23)c1
inactive: dose: 50.0 mg/kg/injection, schedule: Q01DX009 (ip), vehicle: Klucel (hydroxypropylcellulose) (HPC) 93 % of control | [5] 93 % of control | [8] 93 % of control

[N-]=[N+]=[N-]
inactive: dose: 10.0 mg/kg/injection, schedule: Q01DX001 (ip), vehicle: saline 100 % of control | dose: 20.0 mg/kg/injection, schedule: Q01DX001 (ip), vehicle: saline 100 % of control

CC(C)CCC(C)c1ccncc1 (stereo not drawn)
inactive: [13] 103 % of control | dose: 200.0 mg/kg/injection, schedule: Q01DX001 (ip), vehicle: saline 97 % of control | dose: 400.0 mg/kg/injection, schedule: Q01DX001 (ip), vehicle: saline 100 % of control

COc1cccc(NC(=O)NCc2ccco2)c1
inactive: [5] 106 % of control | [8] 108 % of control | [11] 103 % of control

S=C(Nc1ccccc1)NC1CCCCCC1
inactive: dose: 50.0 mg/kg/injection, schedule: Q01DX009 (ip), vehicle: saline with Tween-80 98 % of control and 92 % of control | dose: 100.0 mg/kg/injection, schedule: Q01DX009 (ip), vehicle: saline with Tween-80 94 % of control | [14] 97 % of control | dose: 200.0 mg/kg/injection, schedule: Q01DX009 (ip), vehicle: saline with Tween-80 90 % of control | [15] 94 % of control

CCOC(=O)c1ccc(N2C(=O)CC(Sc3ccccc3N)C2=O)cc1 (stereo not drawn)
inactive: dose: 100.0 mg/kg/injection, schedule: Q01DX005 (ip), vehicle: Klucel (hydroxypropylcellulose) (HPC) 97 % of control | [6] 103 % of control | dose: 200.0 mg/kg/injection, schedule: Q01DX005 (ip), vehicle: Klucel (hydroxypropylcellulose) (HPC) 102 % of control | [9] 103 % of control | dose: 400.0 mg/kg/injection, schedule: Q01DX005 (ip), vehicle: Klucel (hydroxypropylcellulose) (HPC) 91 % of control | [12] 113 % of control

O=C1C(F)=C(N2CC2)C(=O)C(F)=C1N1CC1
inactive: dose: 0.39 mg/kg/injection, schedule: Q01DX009 (ip), vehicle: Klucel (hydroxypropylcellulose) (HPC) 104 % of control | dose: 0.78 mg/kg/injection, schedule: Q01DX009 (ip), vehicle: Klucel (hydroxypropylcellulose) (HPC) 100 % of control | dose: 0.78 mg/kg/injection, schedule: Q04DX003 (ip), vehicle: alcohol 113 % of control | dose: 1.56 mg/kg/injection, schedule: Q01DX009 (ip), vehicle: Klucel (hydroxypropylcellulose) (HPC) 116 % of control | dose: 1.56 mg/kg/injection, schedule: Q04DX003 (ip), vehicle: alcohol 105 % of control | dose: 3.12 mg/kg/injection, schedule: Q01DX009 (ip), vehicle: Klucel (hydroxypropylcellulose) (HPC) 102 % of control | dose: 3.12 mg/kg/injection, schedule: Q04DX003 (ip), vehicle: alcohol 105 % of control | dose: 6.25 mg/kg/injection, schedule: Q01DX009 (ip), vehicle: Klucel (hydroxypropylcellulose) (HPC) 93 % of control | dose: 6.25 mg/kg/injection, schedule: Q04DX003 (ip), vehicle: saline 110 % of control | dose: 9.2 mg/kg/injection, schedule: Q01DX009 (ip), vehicle: Klucel (hydroxypropylcellulose) (HPC) 98 % of control | dose: 14.0 mg/kg/injection, schedule: Q01DX009 (ip), vehicle: Klucel (hydroxypropylcellulose) (HPC) 87 % of control

[O-]/[N+](=N/O)c1ccccc1
inactive: [13] 92 % of control

O=C(c1ccc(N2CC=C(c3ccccc3)CC2)cc1)C1CC1
inactive: [6] 92 % of control | [9] 95 % of control | [12] 89 % of control

CC12CCC(=O)C=C1CCC1C2C(=O)CC2(C)C1CCC2(O)C(=O)COC(=O)c1cc([N+](=O)[O-])c(N2CC2)c([N+](=O)[O-])c1 (stereo not drawn)
inactive: dose: 50.0 mg/kg/injection, schedule: Q01DX001 (sc), vehicle: steriod suspending solution 103 % of control | dose: 60.0 mg/kg/injection, schedule: Q01DX015 (ip), vehicle: saline 96 % of control | dose: 90.0 mg/kg/injection, schedule: Q01DX015 (ip), vehicle: saline 100 % of control | dose: 100.0 mg/kg/injection, schedule: Q01DX001 (sc), vehicle: steriod suspending solution 95 % of control | dose: 135.0 mg/kg/injection, schedule: Q01DX015 (ip), vehicle: saline 102 % of control | dose: 200.0 mg/kg/injection, schedule: Q01DX001 (sc), vehicle: steriod suspending solution 101 % of control | dose: 200.0 mg/kg/injection, schedule: Q01DX015 (ip), vehicle: saline 96 % of control | dose: 400.0 mg/kg/injection, schedule: Q01DX001 (sc), vehicle: steriod suspending solution 103 % of control

CN(C)C(=O)N1CN(c2ccccc2)C2(CCN(CC3COc4ccccc4O3)CC2)C1=O (stereo not drawn)
inactive: [4] 101 % of control | [7] 97 % of control | [10] 106 % of control

CC[N+](CC)(CC)CC(=O)c1ccc(Br)cc1
inactive: dose: 25.0 mg/kg/injection, schedule: Q04DX002 (ip), vehicle: saline with Tween-80 97 % of control | dose: 50.0 mg/kg/injection, schedule: Q04DX002 (ip), vehicle: saline with Tween-80 97 % of control | dose: 100.0 mg/kg/injection, schedule: Q04DX002 (ip), vehicle: saline with Tween-80 87 % of control and 92 % of control

O=S(=O)(c1ccc(Cl)cc1)N1CCN(S(=O)(=O)c2ccc(Cl)cc2)C1
inactive: dose: 100.0 mg/kg/injection, schedule: Q01DX009 (ip), vehicle: saline 97 % of control | [14] 95 % of control | dose: 200.0 mg/kg/injection, schedule: Q01DX009 (ip), vehicle: saline 94 % of control | [15] 92 % of control | dose: 400.0 mg/kg/injection, schedule: Q01DX009 (ip), vehicle: saline 92 % of control | dose: 400.0 mg/kg/injection, schedule: Q04DX003 (ip), vehicle: saline 103 % of control

Cc1cc(Nc2ncnc(Cl)c2N)ccc1N
inactive: [1] 93 % of control | [2] 98 % of control | [3] 96 % of control

COc1cc(C)c(OC)cc1C
inactive: dose: 100.0 mg/kg/injection, schedule: Q04DX003 (ip), vehicle: saline with Tween-80 99 % of control | dose: 200.0 mg/kg/injection, schedule: Q04DX003 (ip), vehicle: saline with Tween-80 99 % of control | dose: 400.0 mg/kg/injection, schedule: Q04DX003 (ip), vehicle: saline with Tween-80 94 % of control
